Source: US9226923B2, “Spirocyclic molecules as protein kinase inhibitors” (Nanjing Allgen Pharma Co. Ltd., priority 2011, dated 2016)

Columns and labels:
Human ALK = Human ALK (Homo sapiens (Human), UniProt Q9UM73); experiment: ALK enzyme inhibition assay (Reaction Biology Corporation); format: biochemical; conditions: poly[Glu:Tyr] (4:1) 0.2 mg/ml, ATP 10 μM; read-out: Inhibitory Activities IC50, ALK
Description: (§1) The inhibitory activities of compounds of Formula I were assay at Reaction Biology Corporation, One Great Valley Parkway, Malvern, Pa., USA. Human ALK and cMet enzymes were used and the substrate was a peptide substrate, poly[Glu:Tyr] (4:1) at a concentration of 0.2 mg/ml.

Human cMet = Human cMet (Homo sapiens (Human), UniProt P08581); experiment: cMet enzyme inhibition assay (Reaction Biology Corporation); format: biochemical; conditions: poly[Glu:Tyr] (4:1) 0.2 mg/ml, ATP 10 μM; read-out: Inhibitory Activities IC50, cMet
Description: as §1

Human cMet, sequence (P08581 25-1390): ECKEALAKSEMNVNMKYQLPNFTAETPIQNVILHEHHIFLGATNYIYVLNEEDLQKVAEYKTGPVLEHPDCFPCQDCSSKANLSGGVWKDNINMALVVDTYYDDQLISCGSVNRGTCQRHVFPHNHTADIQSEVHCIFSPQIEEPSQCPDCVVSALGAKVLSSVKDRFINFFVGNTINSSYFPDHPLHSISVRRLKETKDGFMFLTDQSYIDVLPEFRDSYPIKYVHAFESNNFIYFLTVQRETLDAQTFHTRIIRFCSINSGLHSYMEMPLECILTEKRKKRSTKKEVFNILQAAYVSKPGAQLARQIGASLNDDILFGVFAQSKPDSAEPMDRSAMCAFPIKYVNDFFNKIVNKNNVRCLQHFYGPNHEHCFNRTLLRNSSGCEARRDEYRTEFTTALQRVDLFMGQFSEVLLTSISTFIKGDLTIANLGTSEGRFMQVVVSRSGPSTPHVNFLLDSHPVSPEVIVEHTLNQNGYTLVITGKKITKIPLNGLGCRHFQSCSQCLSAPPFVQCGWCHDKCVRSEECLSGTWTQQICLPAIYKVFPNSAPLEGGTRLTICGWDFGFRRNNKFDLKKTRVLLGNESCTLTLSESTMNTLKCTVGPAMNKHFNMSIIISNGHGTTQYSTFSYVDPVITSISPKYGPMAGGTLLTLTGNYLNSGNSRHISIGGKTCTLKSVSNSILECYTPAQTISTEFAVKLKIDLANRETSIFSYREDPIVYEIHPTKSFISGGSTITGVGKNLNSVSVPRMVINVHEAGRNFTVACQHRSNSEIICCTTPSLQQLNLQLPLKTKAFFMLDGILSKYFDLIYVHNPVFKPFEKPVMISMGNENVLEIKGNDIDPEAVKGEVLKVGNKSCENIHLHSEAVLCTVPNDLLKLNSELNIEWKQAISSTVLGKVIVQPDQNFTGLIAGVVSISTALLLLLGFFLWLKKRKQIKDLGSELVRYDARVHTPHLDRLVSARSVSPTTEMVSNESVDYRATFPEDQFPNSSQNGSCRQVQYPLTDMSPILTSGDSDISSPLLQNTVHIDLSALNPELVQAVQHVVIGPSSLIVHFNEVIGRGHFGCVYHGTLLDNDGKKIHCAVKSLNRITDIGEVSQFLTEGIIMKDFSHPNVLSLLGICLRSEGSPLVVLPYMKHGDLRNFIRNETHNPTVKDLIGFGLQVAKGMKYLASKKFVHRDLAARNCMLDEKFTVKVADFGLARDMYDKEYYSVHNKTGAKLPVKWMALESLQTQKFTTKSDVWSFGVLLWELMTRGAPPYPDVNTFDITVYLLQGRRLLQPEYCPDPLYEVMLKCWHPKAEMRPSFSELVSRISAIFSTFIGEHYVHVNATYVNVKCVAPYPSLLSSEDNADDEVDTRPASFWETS
Human ALK, sequence (Q9UM73 19-1620): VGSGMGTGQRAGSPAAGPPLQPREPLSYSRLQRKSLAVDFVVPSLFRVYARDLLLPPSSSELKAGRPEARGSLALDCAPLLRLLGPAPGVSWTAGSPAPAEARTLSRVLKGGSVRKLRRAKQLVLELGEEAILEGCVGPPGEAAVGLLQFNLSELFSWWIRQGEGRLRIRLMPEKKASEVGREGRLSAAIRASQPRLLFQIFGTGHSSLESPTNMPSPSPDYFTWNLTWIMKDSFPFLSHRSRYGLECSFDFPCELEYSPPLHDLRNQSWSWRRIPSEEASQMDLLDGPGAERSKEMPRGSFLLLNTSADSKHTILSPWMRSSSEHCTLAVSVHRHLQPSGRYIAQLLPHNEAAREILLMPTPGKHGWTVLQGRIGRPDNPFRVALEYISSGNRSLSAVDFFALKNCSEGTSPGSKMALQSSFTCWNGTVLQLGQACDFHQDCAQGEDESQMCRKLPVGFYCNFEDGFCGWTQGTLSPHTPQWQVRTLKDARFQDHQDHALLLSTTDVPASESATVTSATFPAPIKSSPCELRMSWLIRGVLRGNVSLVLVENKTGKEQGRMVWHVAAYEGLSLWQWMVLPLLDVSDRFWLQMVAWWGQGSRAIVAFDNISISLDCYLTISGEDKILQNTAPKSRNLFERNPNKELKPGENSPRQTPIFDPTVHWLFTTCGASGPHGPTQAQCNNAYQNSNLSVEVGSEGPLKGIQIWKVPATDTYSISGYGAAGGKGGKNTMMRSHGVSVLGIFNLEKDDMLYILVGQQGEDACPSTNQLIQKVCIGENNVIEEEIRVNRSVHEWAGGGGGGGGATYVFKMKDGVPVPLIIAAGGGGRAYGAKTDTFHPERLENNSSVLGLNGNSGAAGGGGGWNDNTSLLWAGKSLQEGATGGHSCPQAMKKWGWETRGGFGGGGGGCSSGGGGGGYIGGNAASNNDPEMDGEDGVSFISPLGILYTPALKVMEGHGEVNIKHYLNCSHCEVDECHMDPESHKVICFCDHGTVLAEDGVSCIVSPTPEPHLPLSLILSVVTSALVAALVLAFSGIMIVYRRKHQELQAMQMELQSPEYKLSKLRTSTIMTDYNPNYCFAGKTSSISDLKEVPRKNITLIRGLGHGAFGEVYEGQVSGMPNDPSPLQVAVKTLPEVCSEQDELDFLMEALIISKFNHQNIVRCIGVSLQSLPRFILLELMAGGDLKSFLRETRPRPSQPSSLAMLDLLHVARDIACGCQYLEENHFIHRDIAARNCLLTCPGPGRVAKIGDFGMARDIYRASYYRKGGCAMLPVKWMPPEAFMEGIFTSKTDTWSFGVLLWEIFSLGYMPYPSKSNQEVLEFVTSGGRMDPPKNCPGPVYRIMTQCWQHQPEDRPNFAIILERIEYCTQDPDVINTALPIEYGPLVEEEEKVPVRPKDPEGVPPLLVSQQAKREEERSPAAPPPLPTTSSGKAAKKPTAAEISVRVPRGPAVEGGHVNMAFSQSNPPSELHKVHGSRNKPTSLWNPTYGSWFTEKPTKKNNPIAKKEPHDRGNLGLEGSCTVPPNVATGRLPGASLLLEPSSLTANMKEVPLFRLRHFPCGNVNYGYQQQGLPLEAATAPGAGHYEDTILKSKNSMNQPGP

Row | SMILES | IC50 (Human ALK) | IC50 (Human cMet)
1 | C[C@@H](Oc1cc(-c2cnn(C3CC4(CNC4)C3)c2)cnc1N)c1c(Cl)ccc(F)c1Cl [Example 2, (R)-5-(1-(2-azaspiro[3.3]heptan-6-yl)-1H-pyrazol-4-yl)-3-(1-(2,6-dichloro-3-fluorophenyl)ethoxy)pyridin-2-amine] | 2.21 nM | 
2 | C[C@@H](Oc1cc(-c2cnn(C3CC4(CCNCC4)C3)c2)cnc1N)c1c(Cl)ccc(F)c1Cl [Example 3, (R)-5-(1-(7-azaspiro[3.5]nonan-2-yl)-1H-pyrazol-4-yl)-3-((R)-1-(2,6-dichloro-3-fluorophenyl)ethoxy)pyridin-2-amine] |  | 8.9 nM
3 | C[C@@H](Oc1cc(-c2cnn(C3CCC4(CC3)CNC4)c2)cnc1N)c1c(Cl)ccc(F)c1Cl [Example 4, (R)-5-(1-(2-azaspiro[3.5]nonan-7-yl)-1H-pyrazol-4-yl)-3-((R)-1-(2,6-dichloro-3-fluorophenyl)ethoxy)pyridin-2-amine] | 4.31 nM | 4.8 nM
4 | C[C@@H](Oc1cc(-c2cnn(C3CC4(CCCNC4)C3)c2)cnc1N)c1c(Cl)ccc(F)c1Cl (stereo partly drawn) [Example 5] | 1.92 nM | 2.09 nM
